{
  "source": "patent US20160045463A1",
  "about": "“USE OF METALLOPROTEASE INHIBITORS IN THE TREATMENT OF POLYCYSTIC LIVER DISEASES” (UNIVERSIDAD DE SALAMANCA, priority 2012, published 2016)",
  "key": {"[1]": {"test_system": "normal human cholangiocytes", "experiment": "Metalloproteolytic activity of culture supernatants, ES001 fluorogenic peptide cleavage", "type": "cell-based", "settings": "for metalloproteolytic activity in presence of stimulus: normal cholangiocytes vs basal, Table 3 final concentration: IL-6, IL-8 50 ng/ml, 17β-estradiol 1 nM/ml, VEGF, EGF, ENA-78, GRO-α 10 ng/ml, HGF 20 ng/ml, FIG. 9", "experimental": "(§1) Metalloproteolytic or metalloprotease activity was measured in supernatants of cultures of normal human cholangiocytes and polycystic human cholangiocytes by an assay based on the cleavage of the ES001 fluorogenic synthetic peptide (R&D Systems Minneapolis, Minn., USA) that emits fluorescence proportional to metalloproteolytic activity. The substrate Mca-Pro-Leu-Gly-Leu-Dpa-Ala-Arg-NH2 [Mca: (7-Methoxycoumarin-4-yl)acetyl, Dpa: N-3-(2,4-Dinitrophenyl)-L-2,3-diaminopropionyl] (Knight C G, et al. FEBS Letters 1992; 296:263) is lysed between glycine and leucine by the action of the MMPs, especially MMP-1 (collagenase 1), MMP-2 (gelatinase A), MMP-7 (matrilysin), MMP-8 (collagenase 2), MMP-9 (gelatinase B), MMP-12 (macrophage elastase), MMP-13 (collagenase 3), MMP-14 (MT1-MMP), MMP-15 (MT2-MMP) and MMP-16 (MT3-MMP).\n(§2) The basal metalloproteolytic activity of normal human cholangiocyte and polycystic human cholangiocytes cultures was determined by trypsinising the contents of 250 ml flasks and counting the number of cells in an inverted optical microscope using a Neubauer camera and a ½ dilution of the cell solution with trypan blue (Sigma). Next, 300,000 cells were seeded in each well of a 6-well plate and incubated with enriched DMEM/F-12 medium for 24 hours. After this time, the cells were washed with PBS and the culture medium changed for 2 ml of quiescent medium (DMEM/F-12, 1% FBS and 1% P/S) and incubated for 6 hours at 37° C./5% CO2. The supernatant was collected from each well and centrifuged at 4° C. for 10 minutes at 1,500 rpm to remove the dead cells present in the supernatant. The supernatant was concentrated 50 times using a 15 kDa (Millipore) Amicon Ultra concentrator. Next the concentrated supernatant was incubated for 2 hours at 37° C. with the ES001 fluorogenic peptide at a final concentration of 10 μM. Also, GM6001 (a global MMP inhibitor) and aprotinin (a global inhibitor of serine proteases) (both from Sigma-Aldrich) were used as controls of the specificity of the analysis of MMP activity in the assay. Recombinant MMP-10 (kindly provided by Dr. José Antonio Rodriguez Garcia, Laboratorio de Ateroesclerosis e Inflamación del CIMA, Universidad de Navarra) was used as a positive control and DMEM/F-12 medium without serum was used as the negative control. The fluorescence determination was kinetically measured in a Spectra MAX GeminiXS (Molecular Devices Sunnyvale, Calif., USA) spectrophotometer at excitation-emission wavelengths of 320-405 nm. The fluorescence intensity emitted by the culture medium was extracted from the metalloproteolytic activity values. The metalloproteolytic activity was calculated from the tangent to the curve of the fluorescence values using at least six different points over time for each type of cell and condition.\n(§3) To analyse the effect of various stimuli on the metalloproteolytic activity of normal and polycystic human cholangiocytes cultures, a protocol similar to that described before in Example 2 was followed, but in this case the incubation of the cells was with quiescent medium (i.e. DMEM/F12, […]) in the presence of the corresponding stimulus (Table 3). Next, the same procedure as described for the analysis of basal metalloproteolytic activity was followed as described in Example 2.\n(§4) Taking into account that: i) basal activity of polycystic human cholangiocytes in culture is greater than that of normal human cholangiocytes and ii) that IL-6 and IL-8 increased the metalloproteolytic activity of normal and polycystic human cholangiocytes, the role of these two cytokines on metalloproteolytic hyperactivity of polycystic human cholangiocytes using antibodies against the receptors of IL-6 (IL6R) and/or IL-8 (CXCR1) was investigated. […]"}, "[2]": {"test_system": "polycystic human cholangiocytes", "experiment": "Metalloproteolytic activity of culture supernatants, ES001 fluorogenic peptide cleavage", "type": "cell-based", "settings": "for metalloproteolytic activity in presence of stimulus: polycystic cholangiocytes vs basal, Table 3 final concentration: IL-6, IL-8 50 ng/ml, 17β-estradiol 1 nM/ml, VEGF, EGF, ENA-78, GRO-α 10 ng/ml, HGF 20 ng/ml, FIG. 9", "experimental": "as §1, §2, §3, §4"}, "[3]": {"settings": "in vivo; cited from earlier work"}, "[4]": {"target": "recombinant MMP-10 (Homo sapiens, UniProt P09238)", "sequence (P09238 99-476, species assumed)": "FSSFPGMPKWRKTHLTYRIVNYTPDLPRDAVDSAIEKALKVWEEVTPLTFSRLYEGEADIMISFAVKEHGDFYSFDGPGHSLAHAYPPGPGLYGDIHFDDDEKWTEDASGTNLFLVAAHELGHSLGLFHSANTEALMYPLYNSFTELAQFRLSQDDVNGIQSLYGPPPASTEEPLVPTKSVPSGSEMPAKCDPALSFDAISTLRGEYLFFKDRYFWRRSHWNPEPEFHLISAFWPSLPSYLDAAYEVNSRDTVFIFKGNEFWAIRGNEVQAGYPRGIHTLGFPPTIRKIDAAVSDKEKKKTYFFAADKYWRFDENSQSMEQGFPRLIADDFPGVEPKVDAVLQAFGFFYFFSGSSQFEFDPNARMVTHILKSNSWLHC", "experiment": "ES001 fluorogenic peptide assay with recombinant MMP-10 as positive control", "type": "biochemical", "settings": "FIG. 2", "experimental": "Metalloproteolytic or metalloprotease activity was measured in supernatants of cultures of normal human cholangiocytes and polycystic human cholangiocytes by an assay based on the cleavage of the ES001 fluorogenic synthetic peptide (R&D Systems Minneapolis, Minn., USA) that emits fluorescence proportional to metalloproteolytic activity. The substrate Mca-Pro-Leu-Gly-Leu-Dpa-Ala-Arg-NH2 [Mca: (7-Methoxycoumarin-4-yl)acetyl, Dpa: N-3-(2,4-Dinitrophenyl)-L-2,3-diaminopropionyl] […]\nThe basal metalloproteolytic activity of normal human cholangiocyte and polycystic human cholangiocytes cultures was determined by trypsinising the contents of 250 ml flasks and counting the number of cells in an inverted optical microscope using a Neubauer camera and a ½ dilution of the cell solution with trypan blue (Sigma). […] The fluorescence determination was kinetically measured in a Spectra MAX GeminiXS (Molecular Devices Sunnyvale, Calif., USA) spectrophotometer at excitation-emission wavelengths of 320-405 nm. The fluorescence intensity emitted by the culture medium was extracted from the metalloproteolytic activity values. The metalloproteolytic activity was calculated from the tangent to the curve of the fluorescence values using at least six different points over time for each type of cell and condition."}},
  "data": [
    {"molecule": "ENA-78: epithelial neutrophil-activating peptide 78", "values": [
      {"measurement": "metalloproteolytic activity in presence of stimulus", "setting": "[1]", "value": "did not induce any change"},
      {"measurement": "metalloproteolytic activity in presence of stimulus", "setting": "[2]", "value": "did not induce any change"}
    ]},
    {"molecule": "EGF: epidermal growth factor", "values": [
      {"measurement": "metalloproteolytic activity in presence of stimulus", "setting": "[1]", "value": "did not induce any change"},
      {"measurement": "metalloproteolytic activity in presence of stimulus", "setting": "[2]", "value": "did not induce any change"}
    ]},
    {"molecule": "O=C(C[C@H](CSc1ccccc1)C(=O)O)c1ccc(-c2ccc(Cl)cc2)cc1", "note": "[BAY-12-9566]", "values": [
      {"measurement": "half-life in plasma", "setting": "[3]", "value": "90 to 100", "unit": "h"}
    ]},
    {"molecule": "CNC(=O)[C@H](Cc1c[nH]c2ccccc12)NC(=O)[C@@H](CC(=O)NO)CC(C)C", "note": "[GM6001]", "values": [
      {"measurement": "metalloproteolytic activity", "setting": "[1]; normal human cholangiocytes, presence of MMP inhibitor GM6001, p<0.001, FIG. 2", "value": "inhibited"},
      {"measurement": "metalloproteolytic activity", "setting": "[2]; polycystic human cholangiocytes, presence of MMP inhibitor GM6001, p<0.001, FIG. 2", "value": "inhibited"},
      {"measurement": "metalloproteolytic activity of the assay with recombinant MMP-10", "setting": "[4]", "value": "inhibited"}
    ]},
    {"molecule": "HGF: hepatocyte growth factor", "values": [
      {"measurement": "metalloproteolytic activity in presence of stimulus", "setting": "[1]", "value": "did not induce any change"},
      {"measurement": "metalloproteolytic activity in presence of stimulus", "setting": "[2]", "value": "did not induce any change"}
    ]}
  ]
}
